Source: patent US4562151A, “Stabilization of L-phenylalanine ammonia-lyase enzyme” (Monsanto Company, priority 1983, dated 1985)

Key:
[1] = system: L-phenylalanine ammonia-lyase; test: Relative effect of polyhydric alcohols on PAL activity, 19 hour incubation (Table III); format: biochemical, R. glutinis; conditions: for PAL Enzyme Activity: 240 mM cinnamate, 6.0 M ammonia, pH 11.5, 37° C., cells about 90 mg/ml, 19 hour incubation, control without alcohol 28; for Stabilizing effect on L-phenylalanine ammonia-lyase: monohydric and dihydric alcohols, concentration not given
Description: The reaction mixture consisted of 6.0 M ammonia, 240 mM cinnamate, R. glutinis cells and the above described polyhydric alcohol at pH 11.5 and 37° C. The final concentration of R. glutinis cells was approximately 90 mg/ml (wet weight). L-phenylalanine formation was determinted by high pressure liquid chromatography following a 19 hour incubation period.

[2] = system: L-phenylalanine ammonia-lyase enzyme; test: 24 hour time course of L-phenylalanine formation with and without glycerol (Figure); format: biochemical, R. glutinis; conditions: 2.0 M glycerol, 200 mM cinnamate, 6.0 M ammonia, pH 11.5, 37° C., cells about 90 mg/ml
Description: Further experiments have shown that polyhydric alcohols, such as glycerol, have a substantial effect on the short-term activity of the L-phenylalanine ammonia-lyase enzyme in addition to a stabilizing effect on the long-term activity of the enzyme. The relative rates of L-phenylalanine formation from trans-cinnamate for a twenty-four hour period in the presence and absence of glycerol are plotted in the graph shown in the Figure. The reaction mixture consisted of 200 mM cinnamate, 6.0 M ammonia, 2.0 M glycerol and R. glutinis cells at pH 11.5 and 37° C. The final concentration of R. glutinis cells was approximately 90 mg/ml(wet weight). L-phenylalanine formation was determined by high pressure liquid chromatography. The amount of L-phenylalanine formed in twenty-four hours in the absence of glycerol was taken as 100.

[3] = system: L-phenylalanine ammonia-lyase enzyme; test: Effect of cinnamate concentration on PAL activity, R. glutinis cells, with or without glycerol (Table I); format: biochemical, Rhodotorula glutinis; conditions: for PAL Activity with glycerol: glycerol 2.3 M, ammonia 6.8 M, pH 11.2, 37° C., activity at 46.1 mM cinnamate taken as 100
Description: For conciseness, the following explanation and examples of the present invention are described with respect to L-phenylalanine ammonia-lyase enzyme from Rhodotorula glutinis cells (ATCC 15385) known to catalyze the reversible reaction between trans-cinnamate and an ammonia donor to form L-phenylalanine. To facilitate transport of substrate and product across the cell membrane about 3 to 5 microliters of polyethyleneglycol-p-isooctylphenylether per gram wet weight of cells is preferably added to the microbial cell suspension. It should be understood that the addition of polyethylene glycol-p-isooctylphenylether or other detergents which increase the permeability of cell membranes is not necessary for practice of the present invention.
The effects of increasing cinnamate concentrations on the reactivity of L-phenylalanine ammonia-lyase enzyme with and without the addition of glycerol are shown in Table I.
^(1) glycerol concentration = 2.3 M, ammonia concentration = 6.8 M; p
of the reaction mixture = 11.2; temperature = 37° C.; concentratio
of R. glutinis cells = 90 mg/ml. Enzyme activity at 46.1 mM cinnamate was
^(2) ammonia concentration = 6.8 M; pH of the reaction mixture = 11.2
temperature = 37° C.; concentration of R. glutinis cells = 90
mg/ml. Enzyme activity at 60.0 mM cinnamate was taken as 100.

OC[C@@H](O)[C@@H](O)[C@H](O)[C@H](O)CO [D-mannitol]
PAL Enzyme Activity ([1]; alcohol 0.43 M): 29

CCCCO [butanol]
Stabilizing effect on L-phenylalanine ammonia-lyase [1]: found not to generate the stabilizing effect

OC[C@@H](O)[C@@H](O)[C@H](O)[C@@H](O)CO [D-sorbitol]
PAL Enzyme Activity ([1]; alcohol 0.43 M): 74

CCO [ethanol]
Stabilizing effect on L-phenylalanine ammonia-lyase [1]: found not to generate the stabilizing effect

OCCO [ethylene glycol]
Stabilizing effect on L-phenylalanine ammonia-lyase [1]: found not to generate the stabilizing effect

CO [methanol]
Stabilizing effect on L-phenylalanine ammonia-lyase [1]: found not to generate the stabilizing effect

OCC(O)CO [glycerol]
Instantaneous rate of reaction (initial slope of curve) versus control without glycerol [2]: higher instantaneous rate of reaction
L-phenylalanine formed during the 12 to 24 hr period (long term stabilizing effect) ([2]; without glycerol enzyme essentially inactivated after 12 hours): substantial amount of L-phenylalanine formed during the 12 to 24 hr period
PAL Enzyme Activity ([1]; alcohol 0.72 M): 100
PAL Activity with glycerol ([3]; 46.1 mM cinnamate, R. glutinis cells 90 mg/ml): 100
PAL Activity with glycerol ([3]; 140.0 mM cinnamate, cells 90 mg/ml): 100
PAL Activity with glycerol ([3]; 185.0 mM cinnamate, cells 90 mg/ml): 75
PAL Activity with glycerol ([3]; 250.0 mM cinnamate, cells 90 mg/ml): 59
Activity of L-phenylalanine ammonia-lyase at 250 mM cinnamate relative to that measured at 50 mM ([3]; 250 mM versus 50 mM cinnamate, in presence of glycerol): about 60%
